Measured values from publication PMC13626057, “Sensitizing tumor response to topoisomerase I antibody-drug conjugate by selective CDK7 inhibition” (Science Advances, 2026).
Like-named read-outs stand apart in the source and are kept apart here.

How the values were obtained:
[1] = target: T1, recombinant human CDK7/cyclin H/MNAT1 (Homo sapiens, UniProt P50613); experiment: LANCE Ultra TR-FRET CDK7 kinase assay (cell-free enzymatic assay); assay type: biochemical; conditions: eight-point dilution, top 3000 nM, read-out: IC50 against CDK7
T1 construct: His-tag; purchased Invitrogen PR6749B
T1 sequence (P50613 whole entry): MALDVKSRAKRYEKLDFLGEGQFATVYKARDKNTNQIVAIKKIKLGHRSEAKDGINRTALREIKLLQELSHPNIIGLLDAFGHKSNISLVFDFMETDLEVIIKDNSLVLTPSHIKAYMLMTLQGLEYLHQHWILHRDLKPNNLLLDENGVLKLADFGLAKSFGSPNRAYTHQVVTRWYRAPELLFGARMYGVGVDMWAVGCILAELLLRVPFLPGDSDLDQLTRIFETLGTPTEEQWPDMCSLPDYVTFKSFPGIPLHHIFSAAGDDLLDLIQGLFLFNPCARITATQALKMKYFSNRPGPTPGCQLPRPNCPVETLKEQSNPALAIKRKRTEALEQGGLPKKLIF
T1 sequence (P51946 whole entry partner): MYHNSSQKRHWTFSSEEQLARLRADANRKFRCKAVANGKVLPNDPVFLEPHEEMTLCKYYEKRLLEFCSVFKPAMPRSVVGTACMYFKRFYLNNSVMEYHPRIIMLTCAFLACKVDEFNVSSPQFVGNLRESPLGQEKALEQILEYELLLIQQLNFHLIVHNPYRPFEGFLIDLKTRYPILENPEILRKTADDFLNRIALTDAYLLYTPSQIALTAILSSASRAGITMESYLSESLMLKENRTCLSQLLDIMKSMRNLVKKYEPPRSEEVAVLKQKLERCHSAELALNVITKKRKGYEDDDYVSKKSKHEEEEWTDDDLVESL
T1 sequence (P51948 whole entry partner): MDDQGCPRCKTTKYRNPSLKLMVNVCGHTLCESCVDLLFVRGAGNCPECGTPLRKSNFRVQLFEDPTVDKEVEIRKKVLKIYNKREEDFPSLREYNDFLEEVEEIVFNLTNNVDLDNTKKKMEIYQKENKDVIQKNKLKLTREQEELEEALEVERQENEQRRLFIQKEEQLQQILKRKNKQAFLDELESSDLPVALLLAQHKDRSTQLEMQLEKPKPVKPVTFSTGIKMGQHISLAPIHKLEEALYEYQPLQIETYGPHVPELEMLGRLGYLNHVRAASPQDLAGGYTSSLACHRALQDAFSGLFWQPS
Method: CDK7 kinase activity was measured using a LANCE Ultra TR-FRET kinase assay (Revvity, formerly PerkinElmer, Waltham, MA, USA) according to the manufacturer’s protocol. Briefly, recombinant human CDK7/cyclin H/MNAT1 His-tag protein (Invitrogen, PR6749B) was incubated with compounds (Q901, Q901R, and QS0551508) in kinase buffer in a 384-well format. The assay used a ULight-labeled peptide substrate and a europium-labeled anti-phospho antibody for time-resolved fluorescence resonance energy transfer (TR-FRET) detection.
TR-FRET signals were measured using an EnVision multimode plate reader (Revvity, EnVision 2105 Alpha) with LANCE/DELFIA detection settings.
Compounds were tested using an eight-point serial dilution (top concentration: 3000 nM, 1:4 dilution). Signals were normalized to DMSO-treated controls to calculate residual kinase activity (%), and dose-response curves were generated using GraphPad Prism 10.4.1.

CDK13 = target: T2, CDK13 (Homo sapiens, UniProt Q14004); experiment: Radiometric 28 CDK titration assay; assay type: biochemical
T2 construct: purchased Reaction Biology (Freiburg, Germany), assay service
Method: (§1) A radiometric protein kinase assay service was provided by Reaction Biology (Freiburg, Germany) to measure the kinase activity of 410 protein kinases and 28 CDKs.
(§2) In the 28 CDK titration assay, the residual activity and IC50 values of the compound were calculated using the Quattro Workflow V3.1.1 (Quattro Research GmbH, Munich, Germany). The ATP concentration used in each kinase reaction was set to the apparent ATP-Km value. Dose-response curve fitting was performed using a four-parameter logistic regression model in GraphPad Prism 10.4.1 (GraphPad Software, Boston, MA, USA).

CDK8 = target: T3, CDK8 (Homo sapiens, UniProt P49336); experiment: Radiometric 28 CDK titration assay; assay type: biochemical
T3 construct: purchased Reaction Biology (Freiburg, Germany), assay service
T3 sequence (P49336 whole entry): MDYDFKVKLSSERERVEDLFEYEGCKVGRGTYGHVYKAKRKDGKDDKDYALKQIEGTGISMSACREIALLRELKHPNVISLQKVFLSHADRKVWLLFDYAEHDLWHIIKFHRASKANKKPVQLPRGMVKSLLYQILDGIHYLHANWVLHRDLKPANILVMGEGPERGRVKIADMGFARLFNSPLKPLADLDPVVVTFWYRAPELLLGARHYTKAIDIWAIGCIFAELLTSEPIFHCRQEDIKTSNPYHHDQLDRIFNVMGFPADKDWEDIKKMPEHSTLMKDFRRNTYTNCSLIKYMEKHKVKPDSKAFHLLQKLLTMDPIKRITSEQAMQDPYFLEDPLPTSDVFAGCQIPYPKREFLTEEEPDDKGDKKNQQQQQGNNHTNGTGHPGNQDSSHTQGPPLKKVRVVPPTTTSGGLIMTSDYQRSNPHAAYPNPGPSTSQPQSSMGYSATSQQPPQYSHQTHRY
T3 sequence (P24863 whole entry partner): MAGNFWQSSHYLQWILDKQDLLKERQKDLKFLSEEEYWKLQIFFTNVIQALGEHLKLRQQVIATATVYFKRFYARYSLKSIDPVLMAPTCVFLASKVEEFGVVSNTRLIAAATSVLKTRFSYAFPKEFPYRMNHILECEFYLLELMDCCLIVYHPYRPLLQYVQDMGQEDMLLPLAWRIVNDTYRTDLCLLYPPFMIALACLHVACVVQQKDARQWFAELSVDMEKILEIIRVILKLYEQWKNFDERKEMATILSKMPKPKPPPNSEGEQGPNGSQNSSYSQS
Method: as §1, §2

CDK12 = target: T4, CDK12 (Homo sapiens, UniProt Q9NYV4); experiment: Radiometric 28 CDK titration assay; assay type: biochemical
T4 construct: purchased Reaction Biology (Freiburg, Germany), assay service
T4 sequence (Q9NYV4 whole entry): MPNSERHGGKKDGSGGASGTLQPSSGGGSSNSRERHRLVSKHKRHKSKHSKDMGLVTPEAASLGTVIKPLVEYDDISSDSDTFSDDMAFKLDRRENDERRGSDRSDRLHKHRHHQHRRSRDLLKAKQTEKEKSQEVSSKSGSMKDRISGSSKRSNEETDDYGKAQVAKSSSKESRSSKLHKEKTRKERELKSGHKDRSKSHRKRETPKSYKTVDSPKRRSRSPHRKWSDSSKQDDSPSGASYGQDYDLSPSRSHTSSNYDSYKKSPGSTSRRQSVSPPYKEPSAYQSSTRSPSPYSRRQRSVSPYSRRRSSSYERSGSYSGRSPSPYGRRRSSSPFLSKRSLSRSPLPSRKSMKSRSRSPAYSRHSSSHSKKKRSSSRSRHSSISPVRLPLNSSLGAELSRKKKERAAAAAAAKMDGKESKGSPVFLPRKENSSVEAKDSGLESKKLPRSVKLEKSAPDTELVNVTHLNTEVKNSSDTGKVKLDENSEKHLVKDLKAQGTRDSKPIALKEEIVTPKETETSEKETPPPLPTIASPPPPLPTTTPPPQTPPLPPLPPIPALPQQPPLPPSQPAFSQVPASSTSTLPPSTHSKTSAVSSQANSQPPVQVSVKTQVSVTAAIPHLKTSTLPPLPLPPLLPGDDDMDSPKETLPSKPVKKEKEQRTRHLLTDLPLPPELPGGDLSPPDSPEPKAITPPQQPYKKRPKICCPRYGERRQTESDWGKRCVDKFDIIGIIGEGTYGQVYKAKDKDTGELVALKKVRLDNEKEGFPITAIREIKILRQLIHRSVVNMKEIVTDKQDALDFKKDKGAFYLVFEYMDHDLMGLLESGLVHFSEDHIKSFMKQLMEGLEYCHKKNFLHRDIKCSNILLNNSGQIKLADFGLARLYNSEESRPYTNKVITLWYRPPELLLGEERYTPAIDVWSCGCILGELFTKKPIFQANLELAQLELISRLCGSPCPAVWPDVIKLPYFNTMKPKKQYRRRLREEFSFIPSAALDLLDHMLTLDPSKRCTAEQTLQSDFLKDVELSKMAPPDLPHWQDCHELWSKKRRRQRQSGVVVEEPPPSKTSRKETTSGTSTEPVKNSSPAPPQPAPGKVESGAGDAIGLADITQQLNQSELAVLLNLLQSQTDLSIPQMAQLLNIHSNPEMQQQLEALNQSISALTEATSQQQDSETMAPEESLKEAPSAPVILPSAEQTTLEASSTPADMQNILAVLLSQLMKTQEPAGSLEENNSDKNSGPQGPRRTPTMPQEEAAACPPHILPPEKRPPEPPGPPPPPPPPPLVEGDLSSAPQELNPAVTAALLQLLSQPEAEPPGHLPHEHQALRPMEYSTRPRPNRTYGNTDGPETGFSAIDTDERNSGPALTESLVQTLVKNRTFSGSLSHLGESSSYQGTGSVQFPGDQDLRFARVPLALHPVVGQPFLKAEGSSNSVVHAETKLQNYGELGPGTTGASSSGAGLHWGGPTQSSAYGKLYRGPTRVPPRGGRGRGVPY
T4 sequence (O75909 whole entry partner): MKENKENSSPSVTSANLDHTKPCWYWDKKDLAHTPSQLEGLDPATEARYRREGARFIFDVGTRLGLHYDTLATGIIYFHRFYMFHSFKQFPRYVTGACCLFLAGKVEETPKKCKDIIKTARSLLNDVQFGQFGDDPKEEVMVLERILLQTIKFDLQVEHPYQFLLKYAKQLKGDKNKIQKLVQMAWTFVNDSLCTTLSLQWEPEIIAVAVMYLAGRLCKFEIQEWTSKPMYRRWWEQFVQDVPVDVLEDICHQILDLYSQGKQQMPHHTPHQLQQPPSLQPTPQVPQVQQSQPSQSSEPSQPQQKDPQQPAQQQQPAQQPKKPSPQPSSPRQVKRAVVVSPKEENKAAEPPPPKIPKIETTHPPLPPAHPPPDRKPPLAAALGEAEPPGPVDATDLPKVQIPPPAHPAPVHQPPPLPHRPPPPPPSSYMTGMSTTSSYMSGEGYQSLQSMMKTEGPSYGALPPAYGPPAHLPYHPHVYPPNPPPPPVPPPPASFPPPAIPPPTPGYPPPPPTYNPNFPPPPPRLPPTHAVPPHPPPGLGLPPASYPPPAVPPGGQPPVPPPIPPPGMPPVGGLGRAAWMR
Method: as §1, §2

CDK9 = target: T5, CDK9 (Homo sapiens, UniProt P50750); experiment: Radiometric 28 CDK titration assay; assay type: biochemical
T5 construct: purchased Reaction Biology (Freiburg, Germany), assay service
Method: as §1, §2

HCT116 xenograft = experiment: HCT116 cell line-derived xenograft efficacy; assay type: in vivo, BALB/c nude mice; conditions: by day 28; T-DXd 10 mg/kg single iv, Q901 10 mg/kg ip once daily
Method: BALB/c nude mice were purchased from the Shanghai SIPPR/BK Laboratory Animal Co. Ltd. (Shanghai, China). For in vivo efficacy studies, HCT116 cells or H292 cells were resuspended in PBS and Matrigel (1:1) and implanted subcutaneously. […] Tumor volumes were measured twice weekly after randomization in two dimensions, using a caliper. The TGI was calculated for each group using the formula: TGI (%) = [1 − (Ti − T0)/(Vi − V0)] × 100, where Ti is the average tumor volume of the treatment group on the given day, T0 is the average tumor volume of the treatment group on the day when the treatment was started, Vi is the average tumor volume of the vehicle control group on the same day with Ti, and V0 is the average tumor volume of the vehicle group on the day of treatment start. Statistical significance was calculated using a two-way analysis of variance (ANOVA) followed by Tukey’s multiple comparison test in GraphPad Prism 10.4.1.

H292 cells = experiment: H292 cell viability, single agent and combination (SynergyFinder, ATP Lite); assay type: cell-based; conditions: 72 hours
Method: (§3) SynergyFinder was performed by Oncolines (Oss, Netherlands). […] The absolute IC5_0 values were determined from the dose-response curves generated in XL-fit 5 using the four-parameter logistic equation: fit = A + ((B − A)/{1 + [(C/x)^D]}), where A and B represent the bottom and top plateaus of the curve, C is the IC5_0 value, x is the compound concentration, and D is the Hill slope.

[2] = target: T6, recombinant CDK7/cyclin H/MAT1 (CAK) trimeric complex (Homo sapiens, UniProt P50613); experiment: Covalent binding site evaluation by mass spectrometry; conditions: incubated 1 hour with CAK complex, Arg-C or Arg-C/trypsin digestion
T6 construct: purchased Thermo Fisher Scientific PV3868
T6 sequence (P50613 whole entry): as the sequence (P50613 whole entry) above
T6 sequence (P51946 whole entry partner): as the sequence (P51946 whole entry partner) above
T6 sequence (P51948 whole entry partner): as the sequence (P51948 whole entry partner) above
Method: The recombinant CAK complex (CDK7/cyclin H/MAT1; Thermo Fisher Scientific, PV3868) was incubated with Q901 or DMSO for 1 hour at room temperature (RT), and the reaction complexes were resolved by SDS–polyacrylamide gel electrophoresis (PAGE). The bands corresponding to CDK7 were excised for in-gel digestion. Denaturation, reduction, and alkylation were performed using 8 M urea, TCEP, and iodoacetamide at RT, followed by Arg-C digestion (1:100 Arg-C:protein ratio, at 37°C for 18 hours) and Arg-C/trypsin digestion (1:100 Arg-C:protein ratio and 1:50 trypsin:protein ratio, at 37°C for 18 hours). The extracted peptides were loaded and eluted using a high-performance liquid chromatography (HPLC) system and then separated through a linear gradient (3 to 60% mobile phase B in 120 min) at a flow rate of 0.3 μl/min using EASY-Spray HPLC Columns (75 μm/500 mm) (Thermo Fisher Scientific, ES903) at 40°C and introduced into an Orbitrap Exploris 240 LC-MS/MS System (Thermo Fisher Scientific, BRE725535) in positive ion mode and run in data-independent acquisition (DIA) mode. Data acquisition was performed over a mass/charge ratio (m/z) range of 390 to 1010, and peak integrations for fragment ions of the most intense charge state of the doubly carbamidomethylated Cys^312-containing peptide were analyzed using the Skyline software 24.1 (Seattle, WA, USA). […]

other CDKs = experiment: Radiometric 28 CDK titration assay, selectivity over other CDKs; assay type: biochemical; conditions: ranging from 242-fold to over 1000-fold
Method: as §1, §2

CDK7 = target: T7, CDK7 (Homo sapiens, UniProt P50613); experiment: Radiometric protein kinase assay (PanQinase; 410-kinase panel and 28 CDK titration); assay type: biochemical; conditions: ATP at apparent ATP-Km
T7 construct: purchased Reaction Biology (Freiburg, Germany), assay service
T7 sequence (P50613 whole entry): as the sequence (P50613 whole entry) above
T7 sequence (P51946 whole entry partner): as the sequence (P51946 whole entry partner) above
T7 sequence (P51948 whole entry partner): as the sequence (P51948 whole entry partner) above
Method: as §1
In the kinase inhibition assay, the residual activity for each compound was calculated using the following formula: Residual activity (%) = 100 × [(signal of compound − low control)/(high control − low control)]. The selectivity score of the compound at the tested concentrations was calculated for residual activity < 50%, that is, inhibition of >50%. The selectivity score for a particular compound at a particular concentration was calculated using the following formula: Selectivity score = (count of data points < 50%)/(total number of data points).
as §2

HCT116 cells = experiment: HCT116 cell viability, single agent and combination (SynergyFinder, ATP Lite); assay type: cell-based; conditions: Homo sapiens, HCT-116; 72 hours, alone
Method: as §3

H292 xenograft = experiment: H292 cell line-derived xenograft efficacy; assay type: in vivo, BALB/c nude mice; conditions: for tumor growth inhibition (TGI): by day 28
Method: BALB/c nude mice were purchased from the Shanghai SIPPR/BK Laboratory Animal Co. Ltd. (Shanghai, China). For in vivo efficacy studies, HCT116 cells or H292 cells were resuspended in PBS and Matrigel (1:1) and implanted subcutaneously. When tumors reached an average size of 117 mm^3 (HCT116) or 140 mm^3 (H292), mice were randomized into four groups (n = 8 per group) and treated with Q901 (3 or 10 mg/kg, intraperitoneally once daily), T-DXd (10 mg/kg, single intravenous administration on day 0), SG (3 mg/kg, single intravenous administration on days 1 and 8), or a combination thereof. Tumor volumes were measured twice weekly after randomization in two dimensions, using a caliper. The TGI was calculated for each group using the formula: TGI (%) = [1 − (Ti − T0)/(Vi − V0)] × 100, where Ti is the average tumor volume of the treatment group on the given day, T0 is the average tumor volume of the treatment group on the day when the treatment was started, Vi is the average tumor volume of the vehicle control group on the same day with Ti, and V0 is the average tumor volume of the vehicle group on the day of treatment start. Statistical significance was calculated using a two-way analysis of variance (ANOVA) followed by Tukey’s multiple comparison test in GraphPad Prism 10.4.1.

MCF-7 cells = experiment: MCF-7 cell viability (ATP Lite system); assay type: cell-based; conditions: Homo sapiens, MCF7, read-out: IC50 MCF-7 cell growth
Method: Fig. 2. Q901 alters RNAPII phosphorylation and transcriptional activity. (A) MCF-7 cells were treated with Q901 at the indicated concentrations for 72, 96, or 120 hours. Cell viability was measured using the ATP Lite system. Inhibition (%) was plotted against the log-transformed Q901 concentration (μM) (n = 3 to 4). Data represent means ± SD. (B and C) RNAPII ChIP-seq was performed following treatment with 100 nM Q901 for the indicated duration. (B) Volcano plot of pan RNAPII ChIP-seq signals after Q901 treatment [n = 2; blue dot indicates P value ≤ 0.05 and log2 fold change (log2FC) ≤ −0.58; red dot indicates P value ≤ 0.05 and log2FC ≥ 0.58]. […] CDK7 ChIP-seq was performed with 100 nM Q901 for the indicated durations.
Cells were seeded into 96-well plates and treated with compounds at the indicated concentrations and time points. After incubation, cell viability was measured using either CellTiter-Glo luminescent cell viability assay (Promega, Madison, WI, USA, G7572) according to the manufacturer’s instructions. Plates were equilibrated to RT for 30 min before adding 50 μl of CellTiter-Glo reagent to each well. Luminescence was measured using the EnVision Multi Label Reader (PerkinElmer, Waltham, MA, USA). Dose-response curves were fitted using a nonlinear regression model with a sigmoidal dose-response function in GraphPad Prism 10.4.1. The absolute IC5_0 values were calculated using the dose-response curves generated in XL-fit 5 (IDBS Software, Woking, UK) and fitted with the four-parameter logistic equation: fit = A + ((B − A)/{1 + [(C/x)^D]}), where A and B represent the bottom and top plateaus of the curve, respectively, C is the IC5_0 value, x is the compound concentration, and D is the Hill slope.

[3] = first regimen: SG 3 mg/kg, Q901 10 mg/kg
[4] = second regimen: SG 10 mg/kg, Q901 3 mg/kg

C=C(F)C(=O)Nc1ccc2c(-c3ccccc3CNc3nc(NC[C@H]4CCNC[C@@H]4O)nc4c(C(C)C)cnn34)nccc2c1 [Q901]
IC50 [1]: 10.4 nM | fold difference in inhibition of CDK13 compared to CDK7 (CDK13): 641 fold | fold difference in inhibition of CDK8 compared to CDK7 (CDK8): > 1000 fold | IC50 (CDK8; ATP at apparent ATP-Km): > 10000 nM | fold difference in inhibition of CDK12 compared to CDK7 (CDK12): 207 fold | fold difference in inhibition of CDK9 compared to CDK7 (CDK9): 715 fold | tumor growth inhibition (TGI) (HCT116 xenograft): 81% | IC50 (H292 cells; Homo sapiens, NCI-H292, Single treatment / monotherapy): 12 nM | reduction of intensity of Cys312-containing peptides (residues 310 to 329 and 310 to 318) [2]: ~99% | IC50 values for other CDKs higher than that for CDK7 (other CDKs): ≥ 242 fold | inhibition at 1 µM (CDK7; 1 μM, 1 hour): 99% | remaining activity at 1 µM (CDK7; 1 μM, 1 hour, read-out: residual activity value CDK7): 1% | IC50 (CDK7; in vitro): 10 nM | IC50 (HCT116 cells): 8.4 nM | tumor growth inhibition (TGI) (H292 xenograft; [3]): 80% | tumor growth inhibition (TGI) (H292 xenograft; [4]): 61% | IC50 (MCF-7 cells; 72 hours): 95 nM | IC50 (MCF-7 cells; 96 hours): 16 nM | IC50 (MCF-7 cells; 120 hours): 5 nM

sacituzumab govitecan [SG]
H292 IC50 (H292 cells; monotherapy): 0.5 µg/mL | time at which tumors showed regrowth (H292 xenograft; H292 xenograft, SG alone): > 14 days | tumor growth inhibition (TGI) (H292 xenograft; [3]): 47% | tumor growth inhibition (TGI) (H292 xenograft; [4]): 72%
